According to patent US20240132431A1, “METHOD FOR ALKYLATING ACIDIC FUNCTIONAL GROUP” (Chugai Seiyaku Kabushiki Kaisha, priority 2021, published 2024):

Biological target: T1, Bcl-2 protein (Recombinant Human Bcl-2 Protein) (Homo sapiens, UniProt P10415)
T1 construct: purchased Novus NBP2-34889
Assay: Binding evaluation of mixture library compounds to Bcl-2 using AS-MS (affinity selection mass spectrometry)
Conditions: for ASMS ratio (%) n = 1 / ASMS ratio (%) n = 2: ASMS Ratio(%)=(A−C)/B×100; for ASMS ratio (%) n = 1: replicate n = 1; for ASMS ratio (%) n = 2: replicate n = 2
Summary of the method: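 ASMS Ratio (%) was calculated as (A−C)/B×100, where A is the protein sample after SEC, B the protein-free sample without SEC and C the protein-free sample after SEC. Each compound was at […] in a 1200-member pool with 20 μM Bcl-2, incubated 1 h at 23° C.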

[1] = AS-MS, mixture of 1200 compounds, Bcl-2
[2] = AS-MS on the mixture of 1200 library compounds

T1 sequence (P10415 whole entry): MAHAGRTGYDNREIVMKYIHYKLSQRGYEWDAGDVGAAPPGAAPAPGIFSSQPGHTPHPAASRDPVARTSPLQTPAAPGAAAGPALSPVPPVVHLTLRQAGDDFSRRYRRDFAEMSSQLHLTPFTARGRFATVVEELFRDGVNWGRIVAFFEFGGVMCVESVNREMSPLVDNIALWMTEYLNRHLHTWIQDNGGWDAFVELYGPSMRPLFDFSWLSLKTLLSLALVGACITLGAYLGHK

**Q.** Which “ASMS ratio (%)” value (n = 1) does the source give for `CCOc1cccc(-c2ccc(CN3CCN(c4ccc(C(=O)NS(=O)(=O)c5ccc(NCCSc6ccccc6)c(C(F)(F)F)c5)cc4)CC3)c(CC)c2)c1` [B2R049-01, 4-[4-[[4-(3-Ethoxyphenyl)-2-ethylphenyl]methyl]piperazin-1-yl]-N-[4-(2-phenylsulfanylethylamino)-3-(trifluoromethyl)phenyl]sulfonylbenzamide] here?
**A.** Its value is 7.5%.

**Q.** What about the “ASMS ratio (%)” value (n = 2) of the same compound?
**A.** Its value is −5.5%.

**Q.** What does the source list for `CCOc1cccc(-c2cc(CN3CCN(c4ccc(C(=O)NS(C)(=O)=O)cc4)CC3)cc(C(F)(F)F)c2)c1` [B2I061-01, 4-[4-[[3-(3-Ethoxyphenyl)-5-(trifluoromethyl)phenyl]methyl]piperazin-1-yl]-N-methylsulfonylbenzamide]?
**A.** ASMS ratio (%) (n = 1): −0.8%; ASMS ratio (%) (n = 2): 0.5%

**Q.** Which “ASMS ratio (%) n = 1” value [1] does the source give for “4-[4-[[4-(3-Ethoxyphenyl)-2-ethylphenyl]methyl]piperazin-1-yl]-N-propylbenzamide [B1M069-01]” here?
**A.** Its value is −0.2%.

**Q.** And the “ASMS ratio (%) n = 2” value [1]?
**A.** Its value is −4.4%.

**Q.** Which results are given for `CCOc1cccc(-c2ccc(C(C)N3CCN(c4ccc(C(=O)NS(=O)(=O)CC56CC7CC(CC(C7)C5)C6)cc4)CC3)cc2)c1` (stereo not drawn) [B2A097-01, N-(1-Adamantylmethylsulfonyl)-4-[4-[1-[4-(3-ethoxyphenyl)phenyl]ethyl]piperazin-1-yl]benzamide]?
**A.** ASMS ratio (%) n = 1 (AS-MS, mixture library, Bcl-2): 9.7%; ASMS ratio (%) n = 2 (AS-MS, mixture library, Bcl-2): 0.4%

**Q.** What does the source list for `CCOc1cccc(-c2ccccc2CN2CCN(c3ccc(C(=O)Nc4ccc(OC)cc4)cc3)CC2)c1` [B1O045-01, 4-[4-[[2-(3-Ethoxyphenyl)phenyl]methyl]piperazin-1-yl]-N-(4-methoxyphenyl)benzamide]?
**A.** ASMS ratio (%) n = 1 [2]: 0.0%; ASMS ratio (%) n = 2 [2]: 0.0%

**Q.** With `CCOc1cccc(-c2cnn(-c3cc(C(=O)N4CCN(c5ccc(C(=O)NS(=O)(=O)c6ccc(NCCSc7ccccc7)c([N+](=O)[O-])c6)nn5)CC4)cc(C(F)(F)F)c3)c2)c1` [B2Q021-01, 6-[4-[3-[4-(3-Ethoxyphenyl)pyrazol-1-yl]-5-(trifluoromethyl)benzoyl]piperazin-1-yl]-N-[3-nitro-4-(2-phenylsulfanylethylamino)phenyl]sulfonylpyridazine-3-carboxamide] as the compound, how does the “ASMS ratio (%) n = 1” value (AS-MS, mixture library, Bcl-2) read?
**A.** The value was 0.0%.

**Q.** And the “ASMS ratio (%) n = 2” value (AS-MS, mixture library, Bcl-2)?
**A.** The value was 0.0%.

**Q.** With `CCOc1cncc(-c2ccc(CN3CCN(c4ccc(C(=O)NS(=O)(=O)CCC(F)(F)F)cc4)CC3)c(CC)c2)c1` [B2N050-01, 4-[4-[[4-(5-Ethoxypyridin-3-yl)-2-ethylphenyl]methyl]piperazin-1-yl]-N-(3,3,3-trifluoropropylsulfonyl)benzamide] as the compound, how does the “ASMS ratio (%)” value (n = 1) read?
**A.** Its value is 0.0%.

**Q.** With `CCOc1cccc(-c2ccc(CN3CCN(c4ccc(C(=O)NS(=O)(=O)CCC(F)(F)F)cc4)CC3)c(CC)c2)c1` [B2N049-01, 4-[4-[[4-(3-Ethoxyphenyl)-2-ethylphenyl]methyl]piperazin-1-yl]-N-(3,3,3-trifluoropropylsulfonyl)benzamide] as the compound, how does the “ASMS ratio (%)” value (n = 1) read?
**A.** Its value is 0.0%.

**Q.** What about the “ASMS ratio (%)” value (n = 2) of the same compound?
**A.** The value was 0.0%.

**Q.** How did the “ASMS ratio (%) n = 1” value [1] turn out when `CCOc1cncc(-c2ccc(CN3CCN(c4ccc(C(=O)NCC56CC7CC(CC(C7)C5)C6)nn4)CC3)c(OC)c2)c1` [B1A080-01, N-(1-Adamantylmethyl)-6-[4-[[4-(5-ethoxypyridin-3-yl)-2-methoxyphenyl]methyl]piperazin-1-yl]pyridazine-3-carboxamide] was run?
**A.** The value was 3.4%.

**Q.** And the “ASMS ratio (%) n = 2” value [1]?
**A.** The value was 0.0%.

**Q.** `CCOc1cccc(-c2cc(CN3CCN(c4ccc(C(=O)NS(C)(=O)=O)cc4)CC3)cc(OCC)c2)c1` [B2I055-01, 4-[4-[[3-Ethoxy-5-(3-ethoxyphenyl)phenyl]methyl]piperazin-1-yl]-N-methylsulfonylbenzamide] was tested. Which “ASMS ratio (%)” value (n = 1) did it give?
**A.** Its value is 0.0%.

**Q.** What about the “ASMS ratio (%)” value (n = 2) of the same compound?
**A.** Its value is 0.0%.

**Q.** How did the “ASMS ratio (%) n = 1” value [2] turn out when `CCOc1cncc(-c2cc(CN3CCN(c4ccc(C(=O)Nc5ccc(OC)cc5)nn4)CC3)cc(C(F)(F)F)c2)c1` [B1O088-01] was run?
**A.** The value was 3.1%.

**Q.** And the “ASMS ratio (%) n = 2” value [2]?
**A.** Its value is 1.4%.

**Q.** Which “ASMS ratio (%) n = 1” value [2] does the source give for `CCOc1cccc(-c2cnn(-c3cc(C(=O)N4CCN(c5ccc(C(=O)N(C)CC67CC8CC(CC(C8)C6)C7)nn5)CC4)cc(C(F)(F)F)c3)c2)c1` [B3A021-01, N-(1-Adamantylmethyl)-6-[4-[3-[4-(3-ethoxyphenyl)pyrazol-1-yl]-5-(trifluoromethyl)benzoyl]piperazin-1-yl]-N-methylpyridazine-3-carboxamide] here?
**A.** Its value is 12.5%.

**Q.** What about the “ASMS ratio (%) n = 2” value [2] of the same compound?
**A.** The value was −8.4%.

**Q.** For `CCOc1cccc(-c2cnn(-c3cc(C(=O)N4CCN(c5ccc(C(=O)NS(=O)(=O)CC67CC8CC(CC(C8)C6)C7)cc5)CC4)cc(C(F)(F)F)c3)c2)c1` [B2A043-01, N-(1-Adamantylmethylsulfonyl)-4-[4-[3-[4-(3-ethoxyphenyl)pyrazol-1-yl]-5-(trifluoromethyl)benzoyl]piperazin-1-yl]benzamide], which “ASMS ratio (%) n = 1” value (AS-MS, mixture library, Bcl-2) is on record?
**A.** Its value is 14.0%.

**Q.** What about the “ASMS ratio (%) n = 2” value (AS-MS, mixture library, Bcl-2) of the same compound?
**A.** The value was 4.4%.

**Q.** How did the “ASMS ratio (%)” value (n = 1) turn out when `CCOc1cncc(-c2cc(CN3CCN(c4ccc(C(=O)NS(=O)(=O)CCC(F)(F)F)cc4)CC3)cc(OC(C)C)c2)c1` [B2N058-01, 4-[4-[[3-(5-Ethoxypyridin-3-yl)-5-propan-2-yloxyphenyl]methyl]piperazin-1-yl]-N-(3,3,3-trifluoropropylsulfonyl)benzamide] was run?
**A.** The value was 0.0%.

**Q.** And the “ASMS ratio (%)” value (n = 2)?
**A.** The value was 0.0%.

**Q.** `CCOc1cccc(C#Cc2ccccc2C(=O)N2CCN(c3ccc(C(=O)N(C)CC45CC6CC(CC(C6)C4)C5)cc3)CC2)c1` [B3A029-01, N-(1-Adamantylmethyl)-4-[4-[2-[2-(3-ethoxyphenyl)ethynyl]benzoyl]piperazin-1-yl]-N-methylbenzamide] was tested. Which “ASMS ratio (%) n = 1” value [2] did it give?
**A.** Its value is 0.0%.

**Q.** And the “ASMS ratio (%) n = 2” value [2]?
**A.** The value was 0.0%.

**Q.** With `CCOc1cccc(-c2cc(CN3CCN(c4ccc(C(=O)NCC56CC7CC(CC(C7)C5)C6)nn4)CC3)cc(OC(C)C)c2)c1` [B1A083-01, N-(1-Adamantylmethyl)-6-[4-[[3-(3-ethoxyphenyl)-5-propan-2-yloxyphenyl]methyl]piperazin-1-yl]pyridazine-3-carboxamide] as the compound, how does the “ASMS ratio (%) n = 1” value [1] read?
**A.** The value was −0.3%.

**Q.** What about the “ASMS ratio (%) n = 2” value [1] of the same compound?
**A.** The value was 0.5%.

**Q.** For `CCOc1cccc(-c2ccc(CN3CCN(c4ccc(C(=O)NS(C)(=O)=O)nn4)CC3)c(OC)c2)c1` [B2I079-01, 6-[4-[[4-(3-Ethoxyphenyl)-2-methoxyphenyl]methyl]piperazin-1-yl]-N-methylsulfonylpyridazine-3-carboxamide], which “ASMS ratio (%)” value (n = 1) is on record?
**A.** The value was 0.0%.

**Q.** What about the “ASMS ratio (%)” value (n = 2) of the same compound?
**A.** Its value is 0.0%.

**Q.** Which “ASMS ratio (%)” value (n = 1) does the source give for `CCOc1cccc(C#Cc2cncc(C(=O)N3CCN(c4ccc(C(=O)NS(=O)(=O)CCC(F)(F)F)cc4)CC3)c2)c1` [B2N031-01, 4-[4-[5-[2-(3-Ethoxyphenyl)ethynyl]pyridine-3-carbonyl]piperazin-1-yl]-N-(3,3,3-trifluoropropylsulfonyl)benzamide] here?
**A.** The value was 0.0%.

**Q.** What about the “ASMS ratio (%)” value (n = 2) of the same compound?
**A.** The value was 0.0%.

**Q.** With `CCOc1cncc(-c2cc(C(=O)N3CCN(c4ccc(C(=O)NCC56CC7CC(CC(C7)C5)C6)cc4)CC3)cc(C(F)(F)F)c2)c1` [B1A040-01, N-(1-Adamantylmethyl)-4-[4-[3-(5-ethoxypyridin-3-yl)-5-(trifluoromethyl)benzoyl]piperazin-1-yl]benzamide] as the compound, how does the “ASMS ratio (%) n = 1” value [1] read?
**A.** Its value is 10.4%.

**Q.** And the “ASMS ratio (%) n = 2” value [1]?
**A.** The value was 8.4%.

**Q.** How did the “ASMS ratio (%) n = 1” value [2] turn out when `CCOc1cncc(-c2cc(CN3CCN(c4ccc(C(=O)N(C)CC56CC7CC(CC(C7)C5)C6)nn4)CC3)cc(OC(C)C)c2)c1` [B3A084-01, N-(1-Adamantylmethyl)-6-[4-[[3-(5-ethoxypyridin-3-yl)-5-propan-2-yloxyphenyl]methyl]piperazin-1-yl]-N-methylpyridazine-3-carboxamide] was run?
**A.** Its value is −17.6%.

**Q.** What about the “ASMS ratio (%) n = 2” value [2] of the same compound?
**A.** The value was −7.4%.

**Q.** How did the “ASMS ratio (%)” value (n = 1) turn out when `CCOc1cncc(-c2cc(C(=O)N3CCN(c4ccc(C(=O)NS(=O)(=O)C(C)(C)C)cc4)CC3)cc(C(C)(C)C)c2)c1` [B2L038-01, 4-[4-[3-tert-Butyl-5-(5-ethoxypyridin-3-yl)benzoyl]piperazin-1-yl]-N-tert-butylsulfonylbenzamide] was run?
**A.** Its value is 0.0%.

**Q.** What about the “ASMS ratio (%)” value (n = 2) of the same compound?
**A.** The value was 0.0%.

**Q.** How did the “ASMS ratio (%) n = 1” value (AS-MS, mixture library, Bcl-2) turn out when `CCOc1cccc(-c2ccc(C(=O)N3CCN(c4ccc(C(=O)NS(=O)(=O)CC56CC7CC(CC(C7)C5)C6)nn4)CC3)cc2C)c1` [B2A003-01, N-(1-Adamantylmethylsulfonyl)-6-[4-[4-(3-ethoxyphenyl)-3-methylbenzoyl]piperazin-1-yl]pyridazine-3-carboxamide] was run?
**A.** The value was 21.0%.

**Q.** And the “ASMS ratio (%) n = 2” value (AS-MS, mixture library, Bcl-2)?
**A.** The value was 11.0%.

**Q.** What does the source list for `CCOc1cncc(C#Cc2cncc(C(=O)N3CCN(c4ccc(C(=O)NS(=O)(=O)CCC(F)(F)F)cc4)CC3)c2)c1` [B2N032-01, 4-[4-[5-[2-(5-Ethoxypyridin-3-yl)ethynyl]pyridine-3-carbonyl]piperazin-1-yl]-N-(3,3,3-trifluoropropylsulfonyl)benzamide]?
**A.** ASMS ratio (%) (n = 1): −0.4%; ASMS ratio (%) (n = 2): −1.0%

**Q.** `CCOc1cccc(-c2ccc(C(=O)N3CCN(c4ccc(C(=O)NCC56CC7CC(CC(C7)C5)C6)nn4)CC3)cc2C)c1` [B1A003-01, N-(1-Adamantylmethyl)-6-[4-[4-(3-ethoxyphenyl)-3-methylbenzoyl]piperazin-1-yl]pyridazine-3-carboxamide] was tested. Which “ASMS ratio (%) n = 1” value [1] did it give?
**A.** The value was 7.5%.

**Q.** What about the “ASMS ratio (%) n = 2” value [1] of the same compound?
**A.** The value was 5.8%.

**Q.** Which results are given for `CCOc1cncc(-c2ccc(CN3CCN(c4ccc(C(=O)Nc5ccc(OC)cc5)cc4)CC3)cc2F)c1` [B1O052-01, 4-[4-[[4-(5-Ethoxypyridin-3-yl)-3-fluorophenyl]methyl]piperazin-1-yl]-N-(4-methoxyphenyl)benzamide]?
**A.** ASMS ratio (%) n = 1 [2]: 1.6%; ASMS ratio (%) n = 2 [2]: 0.4%

**Q.** Which “ASMS ratio (%) n = 1” value [2] does the source give for `CCOc1cccc(C#Cc2cncc(C(=O)N3CCN(c4ccc(C(=O)Nc5ccc(OC)cc5)nn4)CC3)c2)c1` [B1O009-01, 6-[4-[5-[2-(3-Ethoxyphenyl)ethynyl]pyridine-3-carbonyl]piperazin-1-yl]-N-(4-methoxyphenyl)pyridazine-3-carboxamide] here?
**A.** Its value is 1.1%.

**Q.** And the “ASMS ratio (%) n = 2” value [2]?
**A.** Its value is 1.3%.
